Legend:
GluA2o LBD [1] = target: T1, GluA2o LBD (Homo sapiens, UniProt P42262); test: SPA displacement of [3H]-HBT1 from His-tagged GluA2o LBD; details: 40 nM [3H]-HBT1, 100 μM glutamate, read-out: IC50, inhibition of binding between [3H]-HBT1 and His-LBD
From the text: (§1) We previously reported that structural interference at Ser750 in the channel-closed state of GluA2o LBD might be involved in the molecular mechanisms underlying the lower agonistic effect of AMPA-R potentiators with dihydropyridothiadiazine 2,2-dioxide derivatives and discovered TAK-137, 9-(4-phenoxyphenyl)-3,4-dihydropyrido[2,1-c][1,2,4]thiadiazine 2,2-dioxide (Fig. 1A)[16]. […] TAK-653 bound to the intradimer interface formed by the ligand binding core (Fig. 1B). […] Binding affinity of TAK-653 to the GluA2o LBD was measured by a scintillation proximity assay (SPA) using [^3H]-HBT1, a radio-labeled LBD-binding AMPA-R potentiator, and a His-tagged GluA2o LBD protein (His-LBD)[21]. […] Binding of [^3H]-TAK-653 to His-LBD was also measured by SPA.
The SPA assays were performed as previously described, with some modifications. […] Radioactivity derived from the bound radio ligand was measured using a microplate scintillation counter (TopCount NXT, PerkinElmer Inc.).

GluA2o LBD [2] = target: T1, GluA2o LBD; test: SPA binding of [3H]-AMPA to His-LBD
From the text: as §1
The SPA assays were performed as previously described, with some modifications. First, 62.5 μg YSi (2–5 μm) copper his-tag SPA beads (PerkinElmer Inc., Waltham, MA) and 0.25 μg His-tagged GluA2o LBD protein (His-LBD) were incubated in 100 μL PBS containing 0.01% NP-40 and 100 μM glutamate for the [^3H]-HBT1/LBD binding assay, containing 0.01% NP-40 and the indicated amount of glutamate for the [^3H]-TAK-653/LBD binding assay or containing 0.001% Triton X-100 for the [^3H]-AMPA/LBD binding assay in 96-well Luminunc plates (Thermo Fisher Scientific Inc.) overnight at 4 °C. Subsequently, test compound and tritium-labeled ligand (40 nM [^3H]-HBT1, 20 nM [^3H]-TAK-653 or 20 nM [^3H]-AMPA) were added to each well. Specific binding was defined as total binding minus nonspecific binding, which was estimated in the presence of 0.25 μg of control protein (His-tagged macrophage MIF protein) instead of His-LBD or in the presence of 3 mM AMPA. Radioactivity derived from the bound radio ligand was measured using a microplate scintillation counter (TopCount NXT, PerkinElmer Inc.).

hGluA1i = target: T2, hGluA1i (Homo sapiens, UniProt P42261); test: Ca2+ influx assay in hGluA1i CHO cells; type: cell-based; details: in the presence of glutamate (3 mM)
T2 construct: expressed in transfected cells; host or cells: CHO cells
T2 sequence (P42261 19-906 isoform P42261-2 limits assumed): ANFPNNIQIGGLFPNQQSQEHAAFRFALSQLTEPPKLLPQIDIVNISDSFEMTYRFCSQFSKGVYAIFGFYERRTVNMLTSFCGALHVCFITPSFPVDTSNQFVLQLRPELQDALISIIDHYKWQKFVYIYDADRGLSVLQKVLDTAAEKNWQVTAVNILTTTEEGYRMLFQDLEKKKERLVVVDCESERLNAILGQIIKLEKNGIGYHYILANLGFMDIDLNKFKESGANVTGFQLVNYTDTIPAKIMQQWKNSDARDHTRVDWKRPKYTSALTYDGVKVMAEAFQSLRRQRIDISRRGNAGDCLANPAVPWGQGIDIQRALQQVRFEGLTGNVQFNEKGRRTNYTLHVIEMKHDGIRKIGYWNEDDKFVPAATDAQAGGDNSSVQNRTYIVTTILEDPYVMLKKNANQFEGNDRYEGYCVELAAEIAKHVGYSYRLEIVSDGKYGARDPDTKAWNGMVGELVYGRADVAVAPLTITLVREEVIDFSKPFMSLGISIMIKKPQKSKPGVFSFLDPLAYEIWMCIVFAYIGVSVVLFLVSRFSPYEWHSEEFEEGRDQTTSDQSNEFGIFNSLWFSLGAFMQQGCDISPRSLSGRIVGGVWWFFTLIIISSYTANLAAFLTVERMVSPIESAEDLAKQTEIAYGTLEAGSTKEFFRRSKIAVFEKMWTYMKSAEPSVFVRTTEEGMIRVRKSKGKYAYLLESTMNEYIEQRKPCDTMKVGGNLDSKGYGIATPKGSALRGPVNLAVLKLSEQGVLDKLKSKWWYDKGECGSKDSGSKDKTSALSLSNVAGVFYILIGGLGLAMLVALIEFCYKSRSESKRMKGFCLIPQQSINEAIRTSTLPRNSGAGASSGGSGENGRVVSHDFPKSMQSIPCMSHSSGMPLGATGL
T2 sequence (Q9Y698 whole entry partner): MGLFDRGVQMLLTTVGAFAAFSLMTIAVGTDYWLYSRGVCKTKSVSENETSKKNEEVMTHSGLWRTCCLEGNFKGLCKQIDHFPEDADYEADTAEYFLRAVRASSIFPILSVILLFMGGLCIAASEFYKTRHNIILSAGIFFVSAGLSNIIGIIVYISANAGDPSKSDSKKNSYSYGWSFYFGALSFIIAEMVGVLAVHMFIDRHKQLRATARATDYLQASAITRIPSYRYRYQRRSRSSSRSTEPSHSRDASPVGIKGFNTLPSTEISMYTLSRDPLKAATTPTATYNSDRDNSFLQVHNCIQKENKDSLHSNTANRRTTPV
Method: Ca^2+ influx assays using human GluA1/flip and human stargazin co-expressing CHO cells plated at 3 × 10^4 cells/well in 96-well Black Clear plates (Corning Incorporated, Corning, NY) were performed as previously described, with some modifications. For evaluation of the species difference, rat GluA1/flip expressing CHO cells were plated. For mutant channels, the human GluA1i S743A mutant was generated using the In-Fusion HD Cloning Kit (Takara Bio Inc., Kusatsu, Japan) according to the manufacturer's protocol and transiently introduced to CHO cells by Gene Pulser II Electroporation System (Bio-Rad Laboratories, Inc., Hercules, CA). Relative increases of intracellular Ca^2+ levels were monitored for 3 min with a fluorometric imaging plate reader (CellLux, Perkin Elmer Life and Analytical Sciences, Inc., Shelton, CT). […]
Human GluA1/flip and human stargazin co-expressing CHO cells were plated at 3×10^4 cells/well in 96-well Black Clear plate (Corning Incorporated, Corning, NY). […] Relative increases of intracellular Ca^2+ levels by compounds in the presence and absence of 3 mM L-glutamate were monitored for 3 min by fluorometric imaging plate reader (CellLux, Perkin Elmer Life and Analytical Sciences, Inc., Shelton, CT). Activity of compound was defined as integration value of fluorescence value of each detection point. […] EC50 values were calculated by logistic regression analysis.

[3] = test system: GluA1-4i and TARP γ-2 or GluA1-4o and TARP γ-2; test: Ca2+ influx assay, AMPA-R subunit selectivity; type: cell-based, human
Method: Human GluA1/flip and human stargazin co-expressing CHO cells were plated at 3×10^4 cells/well in 96-well Black Clear plate (Corning Incorporated, Corning, NY). For subunit selectivity study, human AMPA-Rs (GluA1-4i, GluA1-4o and GluA1i mutants) and human TARPs γ2 co-expressing CHO cells were plated. For evaluation of the species difference, rat GluA1/flip expressing CHO cells were plated. For mutant channels, Human GluA1i S743A mutant was generated by In-Fusion HD Cloning Kit (Takara Bio Inc., Kusatsu, Japan) according to manufacturer's protocol. Each hGluA1i mutant vector was transiently introduced to CHO cells by Gene Pulser II Electroporation System (Bio-Rad Laboratories, Inc., Hercules, CA) and incubated for 6 h in 5% CO2 at 37°C. Then, cells were harvested and plated. These cells were seeded at 3×10^4 cells/well in 96-well Black Clear plate and incubated for 24 h in 5% CO2 at 37°C. […] Relative increases of intracellular Ca^2+ levels by compounds in the presence and absence of 3 mM L-glutamate were monitored for 3 min by fluorometric imaging plate reader (CellLux, Perkin Elmer Life and Analytical Sciences, Inc., Shelton, CT). Activity of compound was defined as integration value of fluorescence value of each detection point. […] EC50 values were calculated by logistic regression analysis. […]

T1 sequence (P42262 with tags, fused parts or gaps): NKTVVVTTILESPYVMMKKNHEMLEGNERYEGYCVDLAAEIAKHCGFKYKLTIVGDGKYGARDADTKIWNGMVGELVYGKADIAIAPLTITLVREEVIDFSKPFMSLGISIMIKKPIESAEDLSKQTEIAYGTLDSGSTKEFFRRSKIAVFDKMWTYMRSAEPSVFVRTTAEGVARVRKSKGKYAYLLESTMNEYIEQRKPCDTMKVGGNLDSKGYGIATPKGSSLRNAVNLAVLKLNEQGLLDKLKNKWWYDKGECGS

**Q.** With `CC1=CN2CCS(=O)(=O)N=C2C(c2ccc(OC3CCCCC3)cc2)=N1` [TAK-653, 9-[4-(Cyclohexyloxy)phenyl]-7-methyl-3,4-dihydropyrazino[2,1-c][1,2,4]thiadiazine 2,2-dioxide] as the compound, how does the IC50 (GluA2o LBD [1]) read?
**A.** 0.26 µM

**Q.** And the “Inhibition of specific binding of [3H]-AMPA to His-LBD” value (GluA2o LBD [2])?
**A.** did not inhibit

**Q.** What about the EC50 (GluA2o LBD [2]; SPA, 20 nM [3H]-AMPA, read-out: EC50 of increase in [3H]-AMPA binding) of the same compound?
**A.** 1.5 ± 0.2 µM

**Q.** And the Emax (GluA2o LBD [2]; SPA, 20 nM [3H]-AMPA, read-out: Emax of increase in [3H]-AMPA binding)?
**A.** 19.9 ± 3.4%

**Q.** And the EC50 (hGluA1i)?
**A.** 3.3 µM

**Q.** And the “Subunit selectivity for homomeric AMPA-R” value [3]?
**A.** did not show prominent subunit selectivity
